Data reported in patent publication US20150017156A1, “ESX-MEDIATED TRANSCRIPTION MODULATORS AND RELATED METHODS” (THE OHIO STATE UNIVERSITY, priority 2011, published 2015).
Read-outs that look alike come from different tables or passages of the source.

Columns and labels:
CAL27 cells [1] = assay: Cell proliferation (CCK-8 reagent), CAL27; assay type: cell-based; conditions: Homo sapiens, read-out: IC50 for cell proliferation
Experimental: (§1) A. EGFR and Her2 levels. […] Cell lysates were prepared and determined for EGFR and Her2 protein levels by immunoblot analyses. B. Cell proliferation. […] (ESXm) for 24 hours. Cell proliferation was assessed using the CCK-8 reagent to detect metabolic active cells. Dose-response curves and IC50 values were generated using GraphPad Prism 4.0 (GraphPad Software, La Jolla, Calif.). […] C. Cell invasion. Cell invasion was determined as described from the cell invasion assay kit (Chemicon International, Temecula, Calif.). […] An aliquot (1×10^5 cells) of the prepared cell suspension was added to the top chamber and 10% FBS was added to the bottom chamber. After 24 hours, non-invading cells were gently removed from the interior of the inserts with a cotton-tipped swab. Invasive cells were stained and visualized. A representative field for each experimental condition is presented. D. Cell migration. Cell migration was determined using the wound healing assay. Cells were seeded and allowed to grow until confluence. […] A representative field for each experimental condition at 0 hour and 24 hours is presented.
(§2) Cell proliferation was assessed using the CCK-8 reagent to detect metabolic active cells. Dose-response curves and IC50 values were generated using GraphPad Prism 4.0 (GraphPad Software, La Jolla, Calif.).

SCC25 cells [2] = assay: Cell proliferation (CCK-8 reagent), SCC25; assay type: cell-based; conditions: Homo sapiens, read-out: IC50 for cell proliferation
Experimental: as §1, §2

CAL27 cells [3] = conditions: 12.5 μmol/L
Experimental: (§3) A. EGFR and Her2 levels. […] Cell lysates were prepared and determined for EGFR and Her2 protein levels by immunoblot analyses. B. Cell proliferation. […] Cell proliferation was assessed using the CCK-8 reagent to detect metabolic active cells. Dose-response curves and IC50 values were generated using GraphPad Prism 4.0 (GraphPad Software, La Jolla, Calif.). […] C. Cell invasion. Cell invasion was determined as described from the cell invasion assay kit (Chemicon International, Temecula, Calif.). […] An aliquot (1×10^5 cells) of the prepared cell suspension was added to the top chamber and 10% FBS was added to the bottom chamber. After 24 hours, non-invading cells were gently removed from the interior of the inserts with a cotton-tipped swab. Invasive cells were stained and visualized. A representative field for each experimental condition is presented. D. Cell migration. Cell migration was determined using the wound healing assay. Cells were seeded and allowed to grow until confluence. […] A representative field for each experimental condition at 0 hour and 24 hours is presented.

[4] = system: EGFR and Her2 levels in CAL27 cells; conditions: 24 hours, immunoblot
Experimental: as §3

[5] = system: EGFR and Her2 levels in SCC25 cells; conditions: 24 hours, immunoblot
Experimental: as §3

SCC25 cells [6] = conditions: 15 μmol/L
Experimental: as §3

[7] = system: Her2 expression in SKBR3 cells; conditions: cited from earlier work
[8] = system: SKBR3 Her2-positive breast carcinoma cells; conditions: cited from earlier work
[9] = Precipitation in cell culture media; assay type: physicochemical; conditions: higher concentrations
[10] = system: phosphorylated erbB2 levels in SkBr3 cells
Experimental: ErbB2 and p-erbB2 ELISA: ELISA assays were performed based on those published elsewhere.[4] […] After 24 hours, media was removed carefully and cells were fixed and permeabilized with cold (−20° C.) methanol. The cells were then washed twice with TBST, blocked for 2 hours at room temperature with superblock (TBST solution from Pierce), incubated with the primary antibody overnight at 4° C. (as a 1:500 solution in superblock). Cells were then washed twice more with TBST and incubate with secondary antibody for 2 hours at room temperature (as a 1:1000 solution in superblock). After being washed 3 times with TBST, Slow TMB (Pierce) was added to measure antibody levels in accordance with the manufacturer's instructions and the absorbance at 370 nm was measured. The cells were washed 3 more times with TBST and total protein levels were measured at 560 nm using BCA reagent (Pierce). […] The resulting ratios were then normalized to cells treated with DMSO.

CAL27 HNSCC cells = assay: Xenograft model of HNSCC, CAL27 in athymic nude mice

Text for SkBr3 (erbB2+) cells: Isobolograms were generated by computing dose fractions directly from the IC50s. Dose fraction is defined as the dose of one component in a combination required to exert a given effect (usually IC50, as in this case) divided by the dose of that component in isolation required to exert the same effect. Thus each combination reported has two dose fraction measurements (eg. dose fraction it and dose fraction lapatinib) that define the combinations x/y coordinates on the isobologram.
Dose fraction of A for combination AB=IC50(A in AB)/IC50(A in isolation)
Dose fraction of B for combination AB=IC50(B in AB)/IC50(B in isolation)
The sum of these x/y coordinates are the combination index. By definition, the CI for either agent in isolation is 1. For the null hypothesis (in which both agents act as though they are equivalent doses of the same agent) the CI will be 1. For combinations where the CI<1, synergy is present.
CI(combination index)=dose fraction A+dose fraction B.
For the experiments used to generate dose-effect curves for the isobolograms and selectivity experiments, cells were plated at 3000 cells per well in 96 well plates. […] The day after the final treatment, cell viability was measured using WST-1 reagent (Roche) in accordance with the manufacturer's instructions. […]

CC(C)C[C@]1(CCO)C[C@H](CN=[N+]=[N-])ON1Cc1ccc(-c2ccccc2)cc1 [biphenyl isoxazolidine]
IC50 (CAL27 cells [1]; CAL-27, 24 h): 46.8 µM
IC50 (SCC25 cells [2]; SCC-25, 24 h): 50.3 µM
Cell invasion (CAL27 cells [3]): dramatically suppressed
Cell migration (CAL27 cells [3]): dramatically suppressed
EGFR and Her2 levels [4]: dose-dependent decrease
EGFR and Her2 levels [5]: dose-dependent decrease
Cell invasion (SCC25 cells [6]): dramatically suppressed
Cell migration (SCC25 cells [6]): dramatically suppressed
Her2 expression [7]: decreased Her2 expression
cell proliferation [8]: inhibited cell proliferation

Cc1ccc(S(=O)(=O)n2ccc3c(OCC(O)CN(CCCCCN)C(=O)N4CCC(C5CCN(C(=O)C67CC8CC(CC(C8)C6)C7)CC5)CC4)cccc32)cc1 (stereo not shown) [Wrenchnolol, wrenchnolol, reference compound]
Her2 expression [7]: decreased Her2 expression
cell proliferation [8]: inhibited cell proliferation

C#Cc1cccc(Nc2ncnc3cc(OCCOC)c(OCCOC)cc23)c1 [erlotinib]
precipitation out of cell culture media [9]: precipitate out of cell culture media at higher concentrations

CS(=O)(=O)CCNCc1ccc(-c2ccc3ncnc(Nc4ccc(OCc5cccc(F)c5)c(Cl)c4)c3c2)o1 [lapatinib, reference compound]
IC50 (CAL27 cells [1]; CAL-27, CAL27 cells, 24 hours of treatment, single agent): 11.8 µM
IC50 (SCC25 cells [2]; SCC-25, SCC25 cells, 24 hours of treatment, single agent): 11.9 µM
IC50 (SkBr3 (erbB2+) cells): 0.048 ± 0.017 µM
effects on erbB2 and phosphorylated erbB2 levels as single agents [10]: moderate effects

CN(C)C/C=C/C(=O)Nc1cc2c(Nc3ccc(F)c(Cl)c3)ncnc2cc1O[C@H]1CCOC1 [afatinib]
mean tumor volume (CAL27 HNSCC cells): 43 mm^3
mean tumor volume, single-agent afatinib arm compared to the combination treatment arm (CAL27 HNSCC cells): 2.1 fold
